Among the test systems are MDA-MB-435; SN12C renal; COLO 205 colon; NCI-H226 lung; SF-539 CNS; OVCAR-4 ovarian; HCT-116 colon; PC-3 prostate; MOLT-4 leukemia; A498 renal.
What all share (experiment): inhibition of tumour cell growth, NCI panel, 48 h

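In this assay, cells in 96-well plates receive the compound at five concentrations for 48 hours. Endpoints are linearly interpolated between the surrounding concentrations. TGI: total growth inhibition.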 Some results are limits rather than exact numbers.

With `O=c1oc2ccccc2c(O)c1C(c1ccc(OCc2ccccc2)cc1)c1c(O)c2ccccc2oc1=O`, the TGI in the experiment on MDA-MB-435, in the experiment with SN12C renal, in the experiment with COLO 205 colon, in the experiment on NCI-H226 lung, with SF-539 CNS and in the experiment on OVCAR-4 ovarian was above 100 µM throughout. The TGI with HCT-116 colon, in the experiment on PC-3 prostate, with MOLT-4 leukemia and with A498 renal was above 100 µM throughout.
Take `NC(=Nc1ccccc1)N/N=C/c1c[nH]c2ccccc12`: the TGI turned out to be 0.0649 µM in the experiment with MDA-MB-435; 15.6 µM in the experiment with SN12C renal; 0.67 µM with COLO 205 colon; 16.1 µM with NCI-H226 lung; 1.92 µM in the experiment on SF-539 CNS; 15 µM in the experiment with OVCAR-4 ovarian. The TGI turned out to be 8.67 µM in the experiment on HCT-116 colon, 12.1 µM with PC-3 prostate, 48.4 µM in the experiment on MOLT-4 leukemia and 2.12 µM in the experiment with A498 renal.
On to `COC(=O)NC(Cc1ccccc1)NC(=O)OC(C)(C)C` (stereo not given), for which the TGI in the experiment on MDA-MB-435, with SN12C renal, with COLO 205 colon, in the experiment on NCI-H226 lung, in the experiment with SF-539 CNS and with OVCAR-4 ovarian was above 100 µM throughout. Also, the TGI with HCT-116 colon, in the experiment on PC-3 prostate, in the experiment on MOLT-4 leukemia and in the experiment on A498 renal was above 100 µM in each case.
For the compound `CC(=O)NC1C(OCc2ccccc2)OC(CO)C(O)C1OC(C)C(=O)NC(C(=O)NC(CCC(=O)NCCCNc1ccc([N+](=O)[O-])c2[nH]c3ccccc3c(=O)c12)C(N)=O)C(C)C` (stereo not given), the TGI in the experiment on MDA-MB-435, in the experiment on SN12C renal, in the experiment on COLO 205 colon, in the experiment on NCI-H226 lung, in the experiment on SF-539 CNS and with OVCAR-4 ovarian was above 100 µM in each case. In addition, the TGI in the experiment on HCT-116 colon, in the experiment on PC-3 prostate, with MOLT-4 leukemia and in the experiment on A498 renal was above 100 µM in each case.
On to `CCSC12OC3(CCCCCN3C1=O)C1C(=O)N(c3ccccc3)C(=O)C12` (stereo not given), for which the TGI with MDA-MB-435, with SN12C renal, in the experiment with COLO 205 colon, in the experiment on NCI-H226 lung, with SF-539 CNS and in the experiment on OVCAR-4 ovarian was above 100 µM throughout. In addition, the TGI with HCT-116 colon, in the experiment with PC-3 prostate, with MOLT-4 leukemia and in the experiment with A498 renal was above 100 µM throughout.
`O=C1CCCC1CC(CN1CCOCC1)Sc1nnnn1-c1ccccc1` (stereo not given): the TGI in the experiment on MDA-MB-435 is above 100 µM; with SN12C renal, above 100 µM; with COLO 205 colon it was 33.1 µM; in the experiment with NCI-H226 lung, above 100 µM; in the experiment on SF-539 CNS, above 100 µM; in the experiment on OVCAR-4 ovarian, above 100 µM. In addition, the TGI with HCT-116 colon, in the experiment on PC-3 prostate, in the experiment on MOLT-4 leukemia and in the experiment on A498 renal was above 100 µM throughout.
Regarding `N=C1C=CC(=C(c2ccc(N)cc2)c2ccc(N)cc2)C=C1`, the TGI with MDA-MB-435 was 19.7 µM; with SN12C renal, 7.37 µM; with COLO 205 colon, 5.83 µM; in the experiment on NCI-H226 lung, 18.2 µM; with SF-539 CNS, 13.1 µM; in the experiment with OVCAR-4 ovarian, 52.4 µM. The TGI with HCT-116 colon was determined as 13.9 µM; in the experiment on PC-3 prostate it was 12.4 µM; with MOLT-4 leukemia, 42.1 µM; in the experiment with A498 renal, 17.3 µM.
For `N=C(N)SCc1nc(-c2ccc(Cl)cc2)no1`, the TGI in the experiment with MDA-MB-435 is 28.4 µM; in the experiment with SN12C renal, 37.5 µM; with COLO 205 colon it was 38.3 µM; in the experiment with NCI-H226 lung it was above 100 µM; in the experiment with SF-539 CNS it was 41.4 µM; with OVCAR-4 ovarian, 29.1 µM. The TGI in the experiment with HCT-116 colon turned out to be 31.9 µM; in the experiment on PC-3 prostate, 37.5 µM; in the experiment on MOLT-4 leukemia, 22.6 µM; in the experiment with A498 renal, 32.3 µM.
Turning to `C=CC(=O)N1C/C(=C\c2ccc(OC)cc2)C(=O)/C(=C/c2ccc(OC)cc2)C1`, the TGI in the experiment with MDA-MB-435 was determined as 7.76 µM; in the experiment with SN12C renal it was 6.83 µM; in the experiment with COLO 205 colon it was 9.99 µM; in the experiment on NCI-H226 lung it was 4.6 µM; in the experiment on SF-539 CNS it was 3.53 µM; with OVCAR-4 ovarian, 13.4 µM. Further, the TGI in the experiment with HCT-116 colon is 0.686 µM; in the experiment on PC-3 prostate it was 4.19 µM; with MOLT-4 leukemia, above 27.8 µM; in the experiment on A498 renal, 3.54 µM.

The values above are taken from PubChem BioAssay (NCI).
